According to US20050197350A1, “Novel quinoline, tetrahydroquinazoline, and pyrimidine derivatives and methods of treatment related to the use thereof” (TAISHO PHARMACEUTICAL CO., LTD., priority 2003, published 2005):

tested on: MCH receptors; assay: MCH receptor activity class (method not given); settings: class by percent of control at 10^-7 M or IC50

SMILES	class
COc1cc(C)c(CNC[C@H]2CC[C@@H](Nc3nccc(N(C)C)n3)CC2)cc1C [compound 1316]	2 (Class 2: The value of percent of control at 10^−7 M was from 40% to 60% or the value of IC′50 was from 50 nM to 200 nM.)
COc1cccc(CNC[C@H]2CC[C@@H](Nc3nccc(N(C)C)n3)CC2)c1O [compound 1317]	3 (Class 3 The value of percent of control at 10^−7 M was more than 60% or the value of IC50 was more than 200 nM.)
CN(C)c1ccnc(N[C@H]2CC[C@@H](CNCc3cc(C(F)(F)F)cc(Cl)c3F)CC2)n1 [compound 1318]	3 (Class 3 The value of percent of control at 10^−7 M was more than 60% or the value of IC50 was more than 200 nM.)
CN(C)c1ccnc(N[C@H]2CC[C@@H](CNCc3cc(F)cc(C(F)(F)F)c3)CC2)n1 [compound 1319]	3 (Class 3 The value of percent of control at 10^−7 M was more than 60% or the value of IC50 was more than 200 nM.)
COc1cc(CNC[C@H]2CC[C@@H](Nc3nccc(N(C)C)n3)CC2)cc(F)c1O [compound 1320]	3 (Class 3 The value of percent of control at 10^−7 M was more than 60% or the value of IC50 was more than 200 nM.)
COc1cc(F)c(CNC[C@H]2CC[C@@H](Nc3nccc(N(C)C)n3)CC2)cc1OC [compound 1321]	3 (Class 3 The value of percent of control at 10^−7 M was more than 60% or the value of IC50 was more than 200 nM.)
CCc1ccccc1CNC[C@H]1CC[C@@H](Nc2nccc(N(C)C)n2)CC1 [compound 1322]	3 (Class 3 The value of percent of control at 10^−7 M was more than 60% or the value of IC50 was more than 200 nM.)
CN(C)c1ccnc(N[C@H]2CC[C@@H](CNCc3ccc(N(C)CCC#N)cc3)CC2)n1 [compound 1323]	2 (Class 2: The value of percent of control at 10^−7 M was from 40% to 60% or the value of IC′50 was from 50 nM to 200 nM.)
CN(C)c1ccnc(N[C@H]2CC[C@@H](CNCc3ccc(OCc4ccc(Br)cc4)cc3)CC2)n1 [compound 1324]	2 (Class 2: The value of percent of control at 10^−7 M was from 40% to 60% or the value of IC′50 was from 50 nM to 200 nM.)
CCOc1c(Br)cc(Br)cc1CNC[C@H]1CC[C@@H](Nc2nccc(N(C)C)n2)CC1 [compound 1325]	2 (Class 2: The value of percent of control at 10^−7 M was from 40% to 60% or the value of IC′50 was from 50 nM to 200 nM.)
COc1cccc(OC)c1CN[C@H]1CC[C@@H](Nc2nc3c(c(N(C)C)n2)CCCC3)CC1 [compound 1326]	3 (Class 3 The value of percent of control at 10^−7 M was more than 60% or the value of IC50 was more than 200 nM.)
CCOc1ccccc1CN[C@H]1CC[C@@H](Nc2nc3c(c(N(C)C)n2)CCCC3)CC1 [compound 1327]	3 (Class 3 The value of percent of control at 10^−7 M was more than 60% or the value of IC50 was more than 200 nM.)
CN(C)c1nc(N[C@H]2CC[C@@H](NCc3c[nH]c4ccccc34)CC2)nc2c1CCCC2 [compound 1328]	3 (Class 3 The value of percent of control at 10^−7 M was more than 60% or the value of IC50 was more than 200 nM.)
COc1ccc(OC)c(CN[C@H]2CC[C@@H](Nc3nc4c(c(N(C)C)n3)CCCC4)CC2)c1 [compound 1329]	3 (Class 3 The value of percent of control at 10^−7 M was more than 60% or the value of IC50 was more than 200 nM.)
COc1ccc(CN[C@H]2CC[C@@H](Nc3nc4c(c(N(C)C)n3)CCCC4)CC2)c2ccccc12 [compound 1330]	3 (Class 3 The value of percent of control at 10^−7 M was more than 60% or the value of IC50 was more than 200 nM.)
COc1ccc2[nH]cc(CN[C@H]3CC[C@@H](Nc4nc5c(c(N(C)C)n4)CCCC5)CC3)c2c1 [compound 1331]	1 (Class 1: The value of percent of control at 10^−7 M was less than 40% or the value of IC50 was less than 50 nM.)

SMILES	class
COc1ccc2ccccc2c1CN[C@H]1CC[C@@H](Nc2nc3c(c(N(C)C)n2)CCCC3)CC1 [compound 1332]	3 (Class 3 The value of percent of control at 10^−7 M was more than 60% or the value of IC50 was more than 200 nM.)
COc1cc(Br)cc(CN[C@H]2CC[C@@H](Nc3nc4c(c(N(C)C)n3)CCCC4)CC2)c1O [compound 1333]	3 (Class 3 The value of percent of control at 10^−7 M was more than 60% or the value of IC50 was more than 200 nM.)
CN(C)c1nc(N[C@H]2CC[C@@H](NCc3c[nH]c4ccc(Br)cc34)CC2)nc2c1CCCC2 [compound 1334]	3 (Class 3 The value of percent of control at 10^−7 M was more than 60% or the value of IC50 was more than 200 nM.)
COc1ccc(CN[C@H]2CC[C@@H](Nc3nc4c(c(N(C)C)n3)CCCC4)CC2)c(OC)c1 [compound 1335]	3 (Class 3 The value of percent of control at 10^−7 M was more than 60% or the value of IC50 was more than 200 nM.)
COc1ccc(CN[C@H]2CC[C@@H](Nc3nc4c(c(N(C)C)n3)CCCC4)CC2)c(OC)c1OC [compound 1336]	3 (Class 3 The value of percent of control at 10^−7 M was more than 60% or the value of IC50 was more than 200 nM.)
COc1cc(CN[C@H]2CC[C@@H](Nc3nc4c(c(N(C)C)n3)CCCC4)CC2)cc(OC)c1O [compound 1337]	2 (Class 2: The value of percent of control at 10^−7 M was from 40% to 60% or the value of IC′50 was from 50 nM to 200 nM.)
CCOc1cc(CN[C@H]2CC[C@@H](Nc3nc4c(c(N(C)C)n3)CCCC4)CC2)ccc1OC [compound 1338]	3 (Class 3 The value of percent of control at 10^−7 M was more than 60% or the value of IC50 was more than 200 nM.)
CN(C)c1nc(N[C@H]2CC[C@@H](NCc3c[nH]nc3-c3ccc(C(F)(F)F)cc3)CC2)nc2c1CCCC2 [compound 1339]	3 (Class 3 The value of percent of control at 10^−7 M was more than 60% or the value of IC50 was more than 200 nM.)
COc1cc(CN[C@H]2CC[C@@H](Nc3nc4c(c(N(C)C)n3)CCCC4)CC2)cc(OC)c1OC [compound 1340]	3 (Class 3 The value of percent of control at 10^−7 M was more than 60% or the value of IC50 was more than 200 nM.)
COc1cc(CN[C@H]2CC[C@@H](Nc3nc4c(c(N(C)C)n3)CCCC4)CC2)cc(OC)c1 [compound 1342]	2 (Class 2: The value of percent of control at 10^−7 M was from 40% to 60% or the value of IC′50 was from 50 nM to 200 nM.)
COc1cc(CN[C@H]2CC[C@@H](Nc3nc4c(c(N(C)C)n3)CCCC4)CC2)cc(I)c1O [compound 1343]	2 (Class 2: The value of percent of control at 10^−7 M was from 40% to 60% or the value of IC′50 was from 50 nM to 200 nM.)
Cc1cc(CN[C@H]2CC[C@@H](Nc3nc4c(c(N(C)C)n3)CCCC4)CC2)cc(C)c1O [compound 1344]	3 (Class 3 The value of percent of control at 10^−7 M was more than 60% or the value of IC50 was more than 200 nM.)
COc1cccc(CN[C@H]2CC[C@@H](Nc3nc4c(c(N(C)C)n3)CCCC4)CC2)c1 [compound 1345]	3 (Class 3 The value of percent of control at 10^−7 M was more than 60% or the value of IC50 was more than 200 nM.)
CN(C)c1nc(N[C@H]2CC[C@@H](NCc3ccc(F)c(Br)c3)CC2)nc2c1CCCC2 [compound 1346]	3 (Class 3 The value of percent of control at 10^−7 M was more than 60% or the value of IC50 was more than 200 nM.)
CC(CCN[C@H]1CC[C@@H](Nc2nc3c(c(N(C)C)n2)CCCC3)CC1)c1ccccc1 (stereo partly shown) [compound 1347]	3 (Class 3 The value of percent of control at 10^−7 M was more than 60% or the value of IC50 was more than 200 nM.)
